Assay results published in PMC7781311 (bioRxiv, 2021).
Like-named read-outs stand apart in the source and are kept apart here.

Columns and labels:
[1] = test system: SARS-CoV-2-S pseudotyped particles (PP); format: cell-based; settings: Calu-3 cells
Calu3 cells = settings: same protocol without PP, ATP content
in vitro = settings: human
TMPRSS2 = TMPRSS2 (Homo sapiens, UniProt O15393); assay: TMPRSS2 biochemical; settings: enzyme assay, maximal efficacy
TMPRSS2, sequence (O15393 whole entry): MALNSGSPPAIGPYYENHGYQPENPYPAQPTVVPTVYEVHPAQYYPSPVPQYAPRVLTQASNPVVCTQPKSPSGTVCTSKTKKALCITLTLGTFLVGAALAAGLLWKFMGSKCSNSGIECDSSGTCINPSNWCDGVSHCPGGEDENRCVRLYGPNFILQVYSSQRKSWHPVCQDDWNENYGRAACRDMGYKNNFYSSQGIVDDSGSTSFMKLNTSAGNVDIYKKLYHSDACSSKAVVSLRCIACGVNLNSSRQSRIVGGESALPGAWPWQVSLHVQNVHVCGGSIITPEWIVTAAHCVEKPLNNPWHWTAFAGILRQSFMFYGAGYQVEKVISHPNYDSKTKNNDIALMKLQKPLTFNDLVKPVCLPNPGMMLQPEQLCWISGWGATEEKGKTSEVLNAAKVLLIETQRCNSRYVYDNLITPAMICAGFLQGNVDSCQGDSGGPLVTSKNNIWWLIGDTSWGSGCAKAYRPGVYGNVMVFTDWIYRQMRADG

SMILES | Activity in the PP entry assay (in words) ([1]; listed as Gabexate) | Activity in the PP entry assay (in words) ([1]; listed as gabexate) | Calu3 cytotoxicity Efficacy (Calu3 cells) [%] | Activity in the PP entry assay (in words) [1] | IC50 (in vitro) [µM] | TMPMSS2 Efficacy (TMPRSS2) [%]
CCOC(=O)c1ccc(OC(=O)CCCCCNC(=N)N)cc1 [NCGC00025297, Gabexate] | inactive | did not exhibit activity | 0 | – | – | –
N=C(N)c1ccc2cc(OC(=O)c3ccc(N=C(N)N)cc3)ccc2c1 [NCGC00160398, Nafamostat] | – | – | 38.74 | high potency and efficacy | 15.8 | –
CN(C)C(=O)COC(=O)Cc1ccc(OC(=O)c2ccc(NC(=N)N)cc2)cc1 [NCGC00167526, Camostat] | – | – | 0 | high potency and efficacy | – | 100
COC(=O)[C@H](Cc1cccc(C(=N)N)c1)[C@@H](C)NC(=O)c1ccc(-c2cc[n+]([O-])cc2)cc1 [NCGC00378763, Otamixaban] | – | – | 0 | efficient activity | – | –
C=Cc1cc(C(=O)Nc2ccc(C(=N)N)cc2)c(-c2ccc(C(=O)NCC3CC3)nc2C(=O)O)cc1OC [NCGC00522636, Avoralstat] | – | – | – | comparable inhibition activity to camostat | – | –
